Test results taken from patent publication US5422353A, “Tetrahydropyridine derivatives” (Boehringer Ingelheim KG, priority 1988, dated 1995).

Experiments:
muscarinic receptors = assay: Receptor binding studies (radioligand L(+)cis-[2-methyl-3H]-N,N,N-trimethyl-1,3-dioxolan-4-methanammonium-iodide, NET-647); details: cerebral cortex (rat); radioligand NET-647; tested as maleate (MA) or oxalate (OX) salt
Protocol: The compounds of formulae I and Ia have valuable pharmacological properties. Thus, in bonding studies, they show affinities with muscarinic receptors and muscarbin-agonistic GTP-shifts (GTP=guanosintriphosphate). (Birdshall, N. I. M., E. C. Hulme and J. M. Stockton 1984 in T.I.P.S. Supplement, Proc. Internat. Symposium on Subtypes of Muscarinic Receptors, Ed. Hirschowitz, Hammer, Giacchetti, Keirns, Levine; Elsevier p. 4-8).
The receptor binding studies were carried out according to: A. Closse, H. Bittiger, D. Langenegger and A. Wanner, Naunyn-Schmiedeberg's Arch. Pharmacol. 335, 372-377 (1987).
Receptor binding studies
L(+)cis-[2-methyl-^3 H]-N,N,N-trimethyl-
1,3-dioxolan-4-methanammonium-iodide
NET-647, Messrs. NEN (New England
Organ: Cerebral cortex (rat)

conscious rabbit = assay: arousal reaction in the EEG (electroencephalograph) of a conscious rabbit; format: in vivo

Ki (muscarinic receptors) [nM]	SMILES	arousal reaction typical of cholinomimetics in the EEG (conscious rabbit; 1 mg/kg and 3 mg/kg i.v.)	arousal reaction typical of cholinomimetics in the EEG (conscious rabbit; 0.1 mg/kg and 0.3 mg/kg i.v.)
210	CCOCC1=CCN(C)CC1 [Example 2, 4-Ethoxymethyl-1-methyl-1,2,3,6-tetrahydropyridine]	exhibit an arousal reaction typical of cholinomimetics	–
8.3	CCSCC1=CCN(C)CC1 [Example 4, 4-[(Ethylthio)methyl]-1-methyl-1,2,3,6-tetrahydropyridine]	–	–
140	CCCOCC1=CCN(C)CC1 [Example 9, 1-Methyl-4-propoxymethyl-1,2,3,6-tetrahydropyridine]	–	–
15	CSCC1=CCN(C)CC1 [Example 13, 1-Methyl-4-[(methylthio)methyl]-1,2,3,6-tetrahydropyridine]	–	exhibit an arousal reaction typical of cholinomimetics
3900	COCCC1=CCN(C)CC1 [OX, 4-(methoxyethyl)-1-methyl-1,2,3,6-tetrahydropyridine]	–	–
